Columns and labels:
Pgk1 = target: T1, Pgk1 (Homo sapiens, UniProt P00558); experiment: Affinity for Pgk1 protein (Biacore T200); type: binding; conditions: drug alone; amount of small-molecule drug bound
T1 sequence (P00558 1-417): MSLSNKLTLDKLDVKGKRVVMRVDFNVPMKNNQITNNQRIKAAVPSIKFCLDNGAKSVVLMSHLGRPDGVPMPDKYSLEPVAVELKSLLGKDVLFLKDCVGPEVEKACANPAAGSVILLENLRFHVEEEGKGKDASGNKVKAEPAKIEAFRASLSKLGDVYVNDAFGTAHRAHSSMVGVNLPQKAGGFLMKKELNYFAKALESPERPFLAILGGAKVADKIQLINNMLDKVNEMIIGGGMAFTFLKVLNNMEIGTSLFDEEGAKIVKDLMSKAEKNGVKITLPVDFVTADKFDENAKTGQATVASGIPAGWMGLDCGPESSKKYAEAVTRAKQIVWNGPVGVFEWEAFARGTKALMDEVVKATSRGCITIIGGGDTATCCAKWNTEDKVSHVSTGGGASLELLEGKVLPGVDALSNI
Procedure: Example 30: Determination of Affinities of Compounds for Pgk1 Protein
Purified Pgk1 protein (with a concentration of 1 mg/mL) was immobilized on a Biacore T200 chip. […] The obtained curves can calculate parameters such as affinity and Rmax.

[1] = tested on: MPTP-induced Parkinson's disease model mice; experiment: MPTP-induced mouse model of Parkinson's disease, rotarod and tyrosine hydroxylase Western blot; type: in vivo
Procedure: Male mice aged 3 months were used and fed normally. The acute MPTP modeling method (see Sonsalla P K, Heikkila R E. The influence of dose and dosing interval on MPTP-induced dopaminergic neurotoxicity in mice. Eur J Pharmacol 1986; 129(3): 339-45.) was employed. MPTP was injected intraperitoneally four times in total at a dose of 20 mg/kg body weight per injection, with a 2-hour interval between each injection. MPTP was dissolved in normal saline, and the control group received an equal dose of normal saline. T2 was dissolved in DMSO and diluted with normal saline to the desired concentration. Accordingly, equal doses of DMSO and normal saline were administered during the treatment. On the day of MPTP model establishment, mice were administered either T2 (treatment group) or DMSO (control group). Subsequently, mice in all groups were administered the corresponding drugs daily. Mouse behavior was tested using a rotarod (E103, UGO BASILE). First, mice were pre-trained for two consecutive days at a constant speed of 15 revolutions per minute (15 rpm) until they could stay on the rod for more than 60 seconds. On day 7 after MPTP injection, mice were tested on the rotarod in an accelerating mode (2 rpm to 45 rpm). The latency to fall from the rotarod was recorded, and the behavior was monitored by a camera. After the experiment, the mice were sacrificed, and the striatal brain tissue was harvested for Western blot assay. Tyrosine hydroxylase (TH) is a protein specifically expressed in dopaminergic neurons. Therefore, whether dopaminergic neurons were damaged can be determined by Western blot assay using an anti-TH antibody.

SK-N-SH cells = experiment: Effects of compounds on cellular ATP levels (Promega ATP assay); type: cell-based, human; conditions: 1 μM, 48 hours, 5% O2; untreated = 1
Procedure: Effects of compounds on cellular ATP levels.
Human Neuroblastoma Cell Line (SK-N-SH) is a human-derived neuroblastoma cell line. SK-N-SH cells were seeded in a 6-well plate at a density of 6×10^4 cells per well. The cells were cultured for 12 hours under 5% O2. Various drugs at a concentration of 1 μM were added. After 48 hours, the cells were harvested. Cellular ATP levels were measured using the Promega ATP assay kit. The experiment was repeated 6 times to 10 times. The experimental results were illustrated in FIG. 1. […] T1 to T11 were the experimental groups.

[2] = tested on: phosphoglycerate kinase 1 (Pgk1); conditions: previous studies; cited from earlier work
al adrenergic receptor = conditions: cited from earlier work
diabetic patients = conditions: cited from earlier work
patients = conditions: cited from earlier work
db/db mice [3] = experiment: Hypoglycemic effect in diabetic model db/db mice, intraperitoneal; type: in vivo; conditions: 0.6 mg/Kg i.p., 4 hours
Procedure: Gene knockout db/db mice are a classic model of hyperglycemia and obesity. Under normal feeding conditions, mice aged 3 months or older developed hyperglycemia and obesity. After the mice were provided with only drinking water (fasted) for 6 hours, blood was collected from the tail of the mice to measure blood glucose values. Subsequently, different drugs, including saline (control), liraglutide at 0.6 mg/Kg, low-concentration T6 (T6 low, 0.1 mg/Kg), and high-concentration T6 (T6 high, 0.5 mg/Kg), were injected intraperitoneally. 4 hours later, blood was collected from the tail of the mice to measure the blood glucose levels. Each group consisted of 6 mice. Blood glucose levels before administration (Vbefore) and after administration (Vafter) were obtained for each mouse. The effect of the drug on blood glucose (%) was calculated as follows:
(Vbefore−Vafter)×100/Vbefore.

db/db mice [4] = experiment: Acute glucose-response assay in non-fasted db/db mice; type: in vivo; conditions: s.c., 2 h; TZ 0.5, liraglutide 0.6, T6 0.5 mg/Kg
Procedure: The db/db mice were used to evaluate the glucose-lowering activity of compound T6 in comparison with reference metabolic agents (TZ 0.5 mg/Kg, liraglutide 0.6 mg/Kg, T6 0.5 mg/Kg). In FIG. 15, A) for the acute glucose-response assay, drugs were administered to non-fasted db/db mice. Immediately after drug administration (s. c.), mice were deprived of food and water, and blood glucose levels were measured from tail blood samples 2 h later. The relative percentage change in blood glucose was calculated by comparing glucose levels before and after treatment in the same animal. […] HbA1c levels were then measured using a glycated hemoglobin A1c enzyme-linked immunosorbent assay, also referred to as a mouse HbA1c ELISA assay. […] Data are presented as mean±error bars, with individual circles representing individual animals. Statistical significance is indicated as P<0.001 (**) and P<0.0001 (***).

rats = conditions: combined administration of terazosin and propranolol; cited from earlier work
[5] = tested on: Parkinson's disease and related diseases; conditions: long-term use; cited from earlier work

With `Nc1nc(N2CCN(C(=O)[C@@H]3CCCO3)CC2)cc2cc3c(cc12)OCO3` [Compound T2] the Rmax (Pgk1) was 122 RU, the “Tyrosine hydroxylase level / dopaminergic neurons” value ([1]; T2 0.1 mg/Kg, striatum, Western blot) was “exerted a protective effect on dopaminergic neurons” and the “Motor ability (rotarod)” value ([1]; T2 0.1, 0.3 and 1 mg/Kg, day 7 after MPTP) was “exerted protective effects”.
In the case of `Nc1nc(N2CCN(C(=O)[C@H]3CCCO3)CC2)cc2cc3c(cc12)OCCO3` [Compound T10], the “Activity in increasing cellular ATP” value (SK-N-SH cells) was “no such activity of increasing cellular ATP” and the Rmax (Pgk1) was “None”.
For `Nc1nc(N2CCN(C(=O)c3ccco3)CC2)cc2cc3c(cc12)OCO3` [Compound T11], the “Activity in increasing cellular ATP” value (SK-N-SH cells) was “no such activity of increasing cellular ATP” and the Rmax (Pgk1) was “None”.
For `COc1cc2cc(N3CCN(C(=O)C4CCCO4)CC3)nc(N)c2cc1OC` (centres unmarked) [TZ-md], the “Binding to / activation of Pgk1” value [2] is given as “still retains the effect of activating Pgk1”, the “Inhibition of the al adrenergic receptor” value (al adrenergic receptor) is given as “does not inhibit the al adrenergic receptor” and the “Reduction of affinity for the al adrenergic receptor” value (al adrenergic receptor; substitution of quinazoline nitrogen by carbon, vs terazosin) is given as “more than 1000 fold”.
In the case of `COc1cc2nc(N3CCN(C(=O)C4COc5ccccc5O4)CC3)nc(N)c2cc1OC` (centres unmarked) [doxazosin], the “Blood glucose and lipid levels” value (diabetic patients) is given as “efficacy is extremely limited or ineffective” and the Side effects (patients) is given as “intraoperative floppy iris syndrome (IFIS), hypotension, fatigue, dizziness, syncope, and blurred vision”.
With `CCCCCCCCCCCCCCCC(=O)N[C@@H](CCC(=O)NCCCC[C@H](NC(=O)[C@H](C)NC(=O)[C@H](C)NC(=O)[C@H](CCC(N)=O)NC(=O)CNC(=O)[C@H](CCC(=O)O)NC(=O)[C@H](CC(C)C)NC(=O)[C@H](Cc1ccc(O)cc1)NC(=O)[C@H](CO)NC(=O)[C@H](CO)NC(=O)[C@@H](NC(=O)[C@H](CC(=O)O)NC(=O)[C@H](CO)NC(=O)[C@@H](NC(=O)[C@H](Cc1ccccc1)NC(=O)[C@@H](NC(=O)CNC(=O)[C@H](CCC(=O)O)NC(=O)[C@H](C)NC(=O)[C@@H](N)Cc1cnc[nH]1)[C@@H](C)O)[C@@H](C)O)C(C)C)C(=O)N[C@@H](CCC(=O)O)C(=O)N[C@@H](Cc1ccccc1)C(=O)N[C@H](C(=O)N[C@@H](C)C(=O)N[C@@H](Cc1c[nH]c2ccccc12)C(=O)N[C@@H](CC(C)C)C(=O)N[C@H](C(=O)N[C@@H](CCCNC(=N)N)C(=O)NCC(=O)N[C@@H](CCCNC(=N)N)C(=O)NCC(=O)O)C(C)C)[C@@H](C)CC)C(=O)O` [liraglutide, reference compound] the “Hypoglycemic effect (liraglutide)” value (db/db mice [3]) was “optimal hypoglycemic effect” and the “Acute change in blood glucose” value (db/db mice [4]) was “marked reduction in blood glucose”.
For `CC(C)NCC(O)COc1cccc2ccccc12` (centres unmarked) [propranolol], the “Blood glucose in rats” value (rats) is given as “did not affect blood glucose in rats”.
For `CCOc1ccccc1OCCN[C@H](C)Cc1ccc(OC)c(S(N)(=O)=O)c1` [tamsulosin], the “Effect on incidence of Parkinson's disease and related diseases” value [5] is given as “do not exhibit similar effects” and the Side effects (patients) is given as “intraoperative floppy iris syndrome (IFIS), hypotension, fatigue, dizziness, syncope, and blurred vision”.

— patent publication US20260355182A1, “ISOQUINOLINE DERIVATIVE, SYNTHESIS METHOD THEREFOR, AND USE THEREOF” (Harbin Gloria Pharmaceuticals Co., Ltd., priority 2023, published 2026)
